# Measurements taken from patent publication US20180369186A1, “METHOD FOR MODULATING AUTOPHAGY AND APPLICATIONS THEREOF” (JAWAHARLAL NEHRU CENTRE FOR ADVANCED SCIENTIFIC RESEARCH, priority 2015, published 2018).
# Columns and labels:
# α-synuclein toxicity = assay: S. cerevisiae α-synuclein toxicity model, growth assay; format: cell-based; details: 50 μM
# Description: To screen small molecule library LOPAC1280 in S. cerevisiae SNCA toxicity model, working plates containing 50 μM drugs in 1.5% DMSO (190 compounds/plate) are prepared in a 384 well format. WT SNCA-GFP with or without small molecules and untreated WT GFP are grown under optimized conditions (80 μl, 30° C. and 420 rpm) for 36 h in a plate reader (Varioskan Flash, Thermo Scientific) in duplicates with automatic absorbance (A600) recording every 20 min. Growth curves of untreated WT GFP and WT SNCA-GFP strains are plotted and mid to late exponential phase time point of untreated WT GFP strain is chosen as reference for data analysis. Its corresponding time point of untreated and drug treated WT SNCA-GFP strains are plotted separately in a box plot. Small molecules that rescued the growth lag by ≥3 SD units of untreated WT SNCA-GFP strain are considered as ‘Hits’.
# (§1) Growth assays: In a 384 well plate, appropriate yeast strains are seeded (A600˜0.07) with and without drugs and incubated (80 μl, 30° C. and 420 rpm) in a multiplate reader (Varioskan Flash, Thermo Scientific) for 48 h with automatic absorbance (A600) recording every 20 min. Growth curves are plotted and analyzed using GraphPad Prism.
# Induction of α-synuclein-EGFP aggregates: To induce α-synuclein-EGFP aggregates, the corresponding strains are inoculated in SD-Ura medium, Secondary culture is inoculated from primary inoculum and incubated till A600 reaches 0.8/ml. Cells are washed twice with sterile water and aggregates are induced by adding SG-Ura for 12-16 h.
# To screen small molecule library LOPAC^1280 in S. cerevisiae α-synuclein toxicity model, working plates containing 50 μM drugs (small molecule) in 1.5% DMSO (190 compounds/plate) are prepared in a 384 well format. WT α-synuclein-EGFP with and without small molecules and untreated WT EGFP are grown under optimized conditions (80 μl, 30° C. and 420 rpm) for 36 h in a plate reader (Varioskan Flash, Thermo Scientific) in duplicates with automatic absorbance (A600) recording every 20 min.
# Growth curves of untreated WT EGFP and WI α-synuclein-EGFP strains are plotted and mid to late exponential phase time point of untreated WT EGFP strain is chosen as reference for data analysis. Its corresponding time point of untreated and drug treated WT α-synuclein-EGFP strains are plotted separately in a box plot.
# (§2) Appropriate yeast strains are seeded (A600 ˜0.07) with or without drugs in a 384-well plate and incubated (420 rpm, 30° C. and 80 μl) in a multiplate reader (Varioskan Flash, Thermo Scientific) for 48 h that records absorbance (A600) automatically for every 20 min. Growth curves are plotted using GraphPad Prism.
# yeast cells = assay: Yeast growth assay (WT EGFP cells); format: cell-based, S. cerevisiae; details: 50 μM
# Description: as §1, §2
# α-synuclein-EGFP = α-synuclein-EGFP degradation assay in yeast; format: cell-based, S. cerevisiae; details: 50 μM
# Description: Subsequent degradation of α-synuclein-EGFP levels are analyzed using immunoblotting (FIG. 9A).
# Yeast cultures after respective treatments are washed, mounted on agarose (2%) pad and imaged. Images are acquired using DeltaVision Elite widefield microscope (API, GE) with following filters: DAPI (390/18 and 435/48), FITC (490/20 and 529/38), TRITC (542/27 and 594/45) and Cy5 (632/22 and 676/34). Images are processed using DV SoftWoRX software. Autophagosome (yellow) and autolysosome (red) are counted using Cell Counter plug-in in imager software (NIH) and graphically represented as fold difference versus untreated (FIGS. 4A, B, C and D).
# After inducing α-synuclein-EGFP aggregates in the corresponding yeast strains driven by galactose promoter, the protein expression is turned off by adding dextrose in the medium. Then, α-synuclein-EGFP aggregates degradation by XCT 790 are assessed by collecting cells treated with and without XCT 790 (50 μM) for 0 and 24 h. Subsequently, the protein levels are analyzed using immunoblotting.
# The appropriate yeast strains (A600=3) are mixed in trichloroacetic acid (12.5%) and then stored at −80° C. Then, the samples are thawed on ice, centrifuged (16000×g, 15 min) and the pellets are washed twice with ice-cold acetone (80%). Pellets are air dried, resuspended in lysis solution (0.1 N NaOH and 1% SDS) and Laemmli buffer and boiled for 15 min.
# After respective treatments, the yeast cultures were washed, seeded on agarose (2%) pad and then imaged.
# [1] = test system: SH-SY5Y cells overexpressing EGFP-α-synuclein; assay: Cell viability of SH-SY5Y cells overexpressing α-synuclein (CellTitre-Glo); format: cell-based, human
# Description: SH-SY5Y cells are seeded on a 96 well plate and transfected with GFP-SNCA only and/or is cotransfected with shRNA GSK3B and GFP-SNCA. To cells, the drugs were added (24 h) after 48 h of transfection. Then, the cell viability was measured using the CellTitre-Glo® (Promega) and luminescence was measured using Varioskan Flash (Thermo Scientific).
# SH-SY5Y cells are seeded onto tissue culture treated 96 well plate and then transfected with EGFP-α-synuclein only and/or co-transfected with siRNA. To cells, appropriate drugs are added (24 h) after 48 h of transfection. Using luminescence-based CellTitre-Glo® (Promega) kit, the cell viability is assayed using automated microtitre plate reader Varioskan Flash (Thermo Scientific) […].
# DAergic neurons in SNpc = assay: MPTP mouse model: LC3 and A11 puncta in DAergic neurons of SNpc; format: in vivo
# Description: The sequential immunolabeling procedure is used to co-label the TH and LC3 and/or A11. First, the midbrain sections are equilibrated with 0.1 M PBS (pH 7.4) for 10 min and then incubated with buffered bovine serum albumin (3%) for 4 h to block non-specific epitopes. Then, the sections are incubated in rabbit anti-LC3 antibody (1:1000) and/or anti-oligomer antibody (A11, 1:1000) for 72 h at 4° C. After subsequent washes, the sections are incubated in corresponding fluorescent secondary antibody (1:200) at 4° C., overnight.
# Co-labeling with TH is performed on the same sections using rabbit anti-TH antibody (1:500), followed by secondary labeling. PBST (0.01 M, pH 7.4) is used as both working and washing buffer. Sections are then mounted using Vectashield hardset mounting medium.
# [2] = 5 mg/kg, co-administered with MPTP
smiles,measurement,setting,value
"O=C1Nc2cc(Br)ccc2/C1=C1/Nc2ccccc2/C1=N\O [6-Bio, (2′Z,3′E)-6-Bromoindirubin-3′-oxime]",rescue of growth lag due to α-synuclein toxicity,α-synuclein toxicity; WT α-synuclein-EGFP strain,rescues the growth lag
same,rescue of growth lag in autophagy mutants expressing α-synuclein,"α-synuclein toxicity; atg1Δ, atg5Δ, atg8Δ, atg11Δ and atg15Δ",fails to rescue growth lag
same,effect on growth of yeast cells,yeast cells,does not affect the growth of yeast cells
same,α-synuclein-EGFP clearance in autophagy mutant atg1Δ,α-synuclein-EGFP; atg1Δ,not in an autophagy mutant
same,α-synuclein-EGFP levels in wild type cells,"α-synuclein-EGFP; non-starvation and starvation, 0, 6, 12 and 24 h",time-dependent and significant decrease
same,cell viability of SNCA over expressed SH-SY5Y cells,[1]; SNCA over expressed for 72 h,significantly increased
same,cytoprotection when GSK3B expression is silenced,"[1]; shRNA GSK3B silenced, SNCA over expressed",marginal cytoprotection
same,"LC3B puncta per neuron, MPTP vs MPTP+Co","DAergic neurons in SNpc; 5 mg/kg, co administered with MPTP","~2,5 fold"
same,"reduction in A11 positive toxic aggregates, MPTP vs MPTP+Co",DAergic neurons in SNpc; [2],~7 fold
same,p-GSK3B signals in DAergic neurons,DAergic neurons in SNpc; 6-Bio only and MPTP+Co cohorts,Reduced p-GSK3B signals
"COc1cc(C=C(C#N)C(=O)Nc2nnc(C(F)(F)F)s2)ccc1OCc1ccc(C(F)(F)F)cc1C(F)(F)F [XCT 790, 3-[4-(2,4-Bis-trifluoromethylbenzyloxy)-3-methoxyphenyl]-2-cyano-N-(5-trifluoromethyl-1,3,4-thiadiazol-2-yl)acrylamide]","rescue of growth lag, treated vs untreated",α-synuclein toxicity; WT α-syn cells,~3.2 fold
same,effect on growth of yeast cells,yeast cells,does not affect the yeast growth
same,clearance of α-synuclein-EGFP in wild-type strain,"α-synuclein-EGFP; 24 h, untreated vs treated",~2.5 fold
same,vacuolar free EGFP (vacuolar degradation of α-synuclein-EGFP),"α-synuclein-EGFP; microscopy, WT α-synuclein-EGFP, untreated vs treated",~14 fold
same,"increase in cell viability, untreated vs treated","[1]; α-syn over expressed cells, 5 μM",~4 fold
same,"cell viability, XCT 790 vs XCT 790+3-MA","[1]; α-syn over expressed cells, with 3-MA",~4 fold
same,"LC3 puncta per neuron, compound only vs placebo/vehicle","DAergic neurons in SNpc; 5 mg/kg of body weight, compound only cohort",~3 fold
same,aggregates in compound only cohort vs vehicle,"DAergic neurons in SNpc; 5 mg/kg, XCT 790 only",comparable to that of vehicle cohort
same,"LC3 puncta per cell, vehicle vs MPTP+Co",DAergic neurons in SNpc; [2],~3 fold
same,"reduction in A11 positive toxic aggregates, MPTP vs MPTP+Co",DAergic neurons in SNpc; [2],~6 fold
